Data set [1] can be described thus: DPPH free radical scavenging assay (antioxidant activity). The following applies: mean ± SD, triplicate; 30 min at 37 °C, absorbance 517 nm. The source says:
The 2,2-Diphenyl-1-picrylhydrazyl (DPPH) radical was used to evaluate the antioxidant potential of the synthesized compounds. Different concentrations of the samples were employed in the subject assay. […] The principle of this assay is related to the conversion of the purple-colored free radical into the pale-yellow-colored reduced form, owing to the action of a proton donating or antioxidant agent. […] Alternatively, compound 1d also acquired hydroxy groups on both mentioned positions. These groups are categorized as strong proton donors which tend to participate in the reduction in DPPH free radicals by donating protons.
The synthesized compounds were evaluated for their antioxidant activity by measuring their ability to scavenge DPPH free radicals. A previously described protocol was followed for this purpose. An amount of 20 µL of each of the four different dilutions of test samples (200, 66.66, 22.22, and 7.41 µg/mL) was added to 96-well plates containing 180 µL of DPPH solution. The absorbance at 517 nm was determined after incubating for 30 min at 37 °C. Ascorbic acid (1 mg/mL DMSO) was used as the positive control, and the assay was performed in triplicate. The IC50 values were also calculated using the % of inhibitions at different concentrations using Table Curve 2D Windows version 4.07.

A further data set addresses mushroom tyrosinase (Agaricus bisporus, UniProt C7FF04). In words: Mushroom tyrosinase inhibitory assay (L-DOPA substrate, dopachrome absorbance at 492 nm). Format: biochemical. The following applies: compared with kojic acid. How it is done: An evaluation of the inhibitory effect on the tyrosinase enzyme was conducted on mushroom tyrosinase.
A tyrosinase inhibitory assay was conducted with the mushroom tyrosinase enzyme. An amount of 20 µL of mushroom tyrosinase (30 U/mL) was combined with 140 µL (20 mM, pH 6.8) of phosphate buffer. An amount of 20 µL of inhibitor solution was added to a 96-well microplate. Then pre-incubation at room temperature was conducted for 10 min. A solution of L-DOPA (20 μL—0.85 mM) was added. This was followed by the incubation of the plate for 20 min at 25 °C. Using a microplate reader (OPTIMax, Tunable), the absorbance of dopa-chrome was recorded at 492 nm.
The absorbance of dopa-chrome was measured at 492 nm using a microplate reader (OPTIMax, Tunable, San Jose, CA, USA). […] The IC50 values were used to express the extent of inhibition. The experiments were performed in triplicate for each concentration.

Values after ≈ are worked out from the molar mass of the structure shown.

Sequence of mushroom tyrosinase (C7FF04 2-392): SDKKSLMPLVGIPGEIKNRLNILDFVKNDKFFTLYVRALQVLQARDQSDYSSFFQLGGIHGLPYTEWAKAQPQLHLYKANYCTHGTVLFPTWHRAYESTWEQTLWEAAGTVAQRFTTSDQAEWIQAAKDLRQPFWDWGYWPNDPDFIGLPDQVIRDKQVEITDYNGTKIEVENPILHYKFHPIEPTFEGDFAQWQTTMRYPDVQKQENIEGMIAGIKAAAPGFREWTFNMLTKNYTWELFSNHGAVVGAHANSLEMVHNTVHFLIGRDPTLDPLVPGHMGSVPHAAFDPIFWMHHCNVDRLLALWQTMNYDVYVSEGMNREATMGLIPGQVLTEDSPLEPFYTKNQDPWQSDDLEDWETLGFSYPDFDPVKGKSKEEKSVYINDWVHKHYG

As for `O=C(O)c1ccc(NC(=O)C2CSC(c3ccccc3O)N2)cc1` (stereo not drawn) [Compound 1a, 4-[2-(2-Hydroxyphenyl)-1,3-thiazolidine-4-carbonyl]-aminobenzoic Acid], the melting point is 135 to 136 °C. For `O=C(C1CSC(c2ccccc2O)N1)N1CCOCC1` (stereo not drawn) [Compound 1b, [2-(2-Hydroxyphenyl)-1,3-thiazolidin-4-yl](morpholin-4-yl)-methanone], the melting point is 128 to 129 °C. On the same count and under the same terms, the result for `O=C(Nc1ccc(O)cc1)C1CSC(c2ccccc2O)N1` (stereo not drawn) [Compound 1c, 2-(2-Hydroxyphenyl)-N-(4-hydroxyphenyl)-1,3-thiazolidine-4-carboxamide] reads 109 to 111 °C. In the case of `O=C(O)c1ccc(NC(=O)C2CSC(c3ccccc3O)N2)cc1O` (stereo not drawn) [Compound 1d, 2-Hydroxy-4-[2-(2-hydroxyphenyl)-1,3-thiazolidine-4-carbonyl]-aminobenzoic Acid], the melting point was 134 to 135 °C. In addition, in data set [1], the “IC50 in the DPPH free radical scavenging assay” value came out at 18.27 ± 1.1 mg/L (≈ 50.7 µM). Consider `COc1ccc(NC(=O)C2CSC(c3ccccc3O)N2)cc1` (stereo not drawn) [Compound 1e, 2-(2-Hydroxyphenyl)-N-(4-methoxyphenyl)-1,3-thiazolidine-4-carboxamide], for which the melting point lay in the range of 83 to 84 °C. In turn, `COc1ccccc1C1NC(C(=O)Nc2ccc(C(=O)O)cc2)CS1` (stereo not drawn) [Compound 2a, 4-[2-(2-Methoxyphenyl)-1,3-thiazolidine-4-carbonyl]-aminobenzoic Acid] yielded a melting point of 116 to 117 °C. Further, the “Tyrosinase inhibitory activity, in words” value on mushroom tyrosinase is “moderate activity”.

The compound `COc1ccccc1C1NC(C(=O)Nc2ccc(C(=O)O)c(O)c2)CS1` (stereo not drawn) [Compound 2d, 2-Hydroxy-4-[2-(2-methoxyphenyl)-1,3-thiazolidine-4-carbonyl]-aminobenzoic Acid] gave a melting point of 112 to 113 °C. Further, the “IC50 in the DPPH free radical scavenging assay” value in data set [1] came to 18.17 ± 1.0 mg/L (≈ 48.5 µM). Also, the “Tyrosinase inhibitory activity, in words” value on mushroom tyrosinase is “moderate activity”. `O=C(O)c1ccc(NC(=O)C2CSC(c3ccc(O)cc3)N2)cc1` (stereo not drawn) [Compound 3a, 4-[2-(4-Hydroxyphenyl)-1,3-thiazolidine-4-carbonyl]-aminobenzoic Acid] registered a melting point of 164 to 166 °C.

In turn, `O=C(Nc1ccc(O)cc1)C1CSC(c2ccc(O)cc2)N1` (stereo not drawn) [Compound 3c, N,2-Bis(4-hydroxyphenyl)-1,3-thiazolidine-4-carboxamide] yielded a melting point of 174 to 176 °C. Regarding `O=C(O)c1ccc(NC(=O)C2CSC(c3ccc(O)cc3)N2)cc1O` (stereo not drawn) [Compound 3d, 2-Hydroxy-4-[2-(4-hydroxyphenyl)-1,3-thiazolidine-4-carbonyl]-aminobenzoic Acid], the melting point lay in the range of 130 to 131 °C. `COc1ccc(NC(=O)C2CSC(c3ccc(O)cc3)N2)cc1` (stereo not drawn) [Compound 3e, 2-(4-Hydroxyphenyl)-N-(4-methoxyphenyl)-1,3-thiazolidine-4-carboxamide] returned a melting point of 115 to 117 °C. The “Tyrosinase inhibitory activity, in words” value at mushroom tyrosinase is reported as “moderate activity”. `COc1ccc(C2NC(C(=O)Nc3ccc(C(=O)O)cc3)CS2)cc1` (stereo not drawn) [Compound 4a, 4-[2-(4-Methoxyphenyl)-1,3-thiazolidine-4-carbonyl]-aminobenzoic Acid]: the melting point was in the range of 94 to 95 °C. `COc1ccc(C2NC(C(=O)Nc3ccc(C(=O)O)c(O)c3)CS2)cc1` (stereo not drawn) [Compound 4d, 2-Hydroxy-4-[2-(4-methoxyphenyl)-1,3-thiazolidine-4-carbonyl]-aminobenzoic Acid] yielded a melting point of 109 to 110 °C. Consider `COc1ccc(NC(=O)C2CSC(c3ccc(OC)cc3)N2)cc1` (stereo not drawn) [Compound 4e, N,2-Bis(4-methoxyphenyl)-1,3-thiazolidine-4-carboxamide], for which the melting point lay in the range of 129 to 131 °C. Besides, the “Tyrosinase inhibitory activity, in words” value at mushroom tyrosinase is given as “moderate activity”. `O=C1O[C@H]([C@@H](O)CO)C(O)=C1O` [ascorbic acid, reference compound]: the “IC50 in the DPPH free radical scavenging assay” value in data set [1] came out at 7.83 ± 0.5 mg/L (≈ 44.5 µM).

The record behind these values is PMC10303221, “Synthesis, In Silico Studies, and Antioxidant and Tyrosinase Inhibitory Potential of 2-(Substituted Phenyl) Thiazolidine-4-Carboxamide Derivatives” (Pharmaceuticals, 2023).
